Data: patent US4150137A, “Pyridylalkyl esters of 2-(p-isobutylphenyl)acetic acid and propionic acids and use” (Hisamitsu Pharmaceutical Co. Inc., priority 1975, dated 1979)

Key:
writhing syndrome = assay: Analgetic activity (acetic acid writhing syndrome); type: in vivo, mouse (dd-strain); conditions: Mus musculus, 1 h; oral, mice, 0.6% acetic acid i.p. one hour later; Litchfield-Wilcoxon; read-out: analgetic effect ED50 (95% C.L.)
Procedure: Each test compound suspended in 0.5% tragacanth-saline was orally administered to dd-strain mice(body weight: 18-20 g). After one hour 0.6% acetic acid solution was injected intraperitoneally in a volume of 0.1 ml/10 g.

[1] = test system: carrageenin-induced leakage of the pigment, dorsal skin; assay: Anti-inflammatory activity for topical route (carrageenin, leakage of pigment in dorsal skin); type: in vivo, rat (Wistar-strain); conditions: for anti-inflammatory effect, topical (relative inhibition, ibuprofen = 1.0): 1% in polyethylene glycol 300, percent inhibition divided by that of ibuprofen
Procedure: The dorsal skin of male rats of Wistar-strain(body weight: about 100 g) were depilated. Carrageenin suspension was injected intra-dermally at a dose of 250 γ/0.05 ml/site. […] Immediately after injection, the filter paper containing 125.2±18.0 mg of the polyethylene glycol was applied on the injected site. After 3 hours, 1% pontamine sky blue solution was injected intravenously at a dose of 0.5 ml/kg. After further 3 hours, the animals were sacrificed and their dorsal skin were removed to measure the area of leakage of the pigment. The percent inhibition was determined with respect to the results for the control animals.

male mice of dd-strain = type: in vivo; conditions: death of animals 72 hours following administration
Procedure: Each test compound suspended in 0.5% tragacanth-saline was administered intraperitoneally or orally to male mice of dd-strain(body weight 16-24 g). The lethal dose was estimated from the death of animals 72 hours following administration.

carrageenin edema = assay: Anti-inflammatory activity for oral route (carrageenin edema, hind paw); type: in vivo, rat (Wistar-strain); conditions: for anti-inflammatory effect, oral, 10 mg/kg (relative inhibition, ibuprofen = 1.0): 10 mg/kg oral; for anti-inflammatory effect, oral, 10 mg/kg (relative inhibition, ibuprofen = 1.0) / anti-inflammatory effect, oral, 50 mg/kg (relative inhibition, ibuprofen = 1.0): percent inhibition divided by that of ibuprofen, carrageenin edema after 3 hours; for anti-inflammatory effect, oral, 50 mg/kg (relative inhibition, ibuprofen = 1.0): 50 mg/kg oral; for mean percent inhibition (carrageenin edema): oral
Procedure: After 30 minutes 0.5-1.0% carrageenin suspended in the water for injection was injected subcutaneously to a hind paw. After 3 hours the carrageenin edema was measured by volume, and the percent inhibition was determined with respect to the results for the control animals.

Row | SMILES | ED50 (writhing syndrome) [mg/kg] | anti-inflammatory effect, topical (relative inhibition, ibuprofen = 1.0) [1] | acute toxicity, oral (lethal dose) (male mice of dd-strain) [mg/kg] | anti-inflammatory effect, oral, 10 mg/kg (relative inhibition, ibuprofen = 1.0) (carrageenin edema) | anti-inflammatory effect, oral, 50 mg/kg (relative inhibition, ibuprofen = 1.0) (carrageenin edema) | mean percent inhibition (topical route) ([1]; 1% in polyethylene glycol 300) [%] | mean percent inhibition (carrageenin edema) (carrageenin edema; 10 mg/kg) [%] | mean percent inhibition (carrageenin edema) (carrageenin edema; 50 mg/kg) [%]
1 | CC(C)Cc1ccc(C(C)C(=O)OCC2CC2)cc1 (stereo not drawn) | 103 | 3.7 | 2000 | 0.8 | 1.6 | – | – | –
2 | CC(C)Cc1ccc(C(C)C(=O)OCc2ccccc2)cc1 (stereo not drawn) | 118 | 3.1 | > 2000 | 0.7 | 0.9 | – | – | –
3 | CC(C)Cc1ccc(C(C)C(=O)OCc2ccccc2Cl)cc1 (stereo not drawn) | 51.4 | 2.5 | > 2000 | 0.5 | 1.0 | – | – | –
4 | CC(C)Cc1ccc(C(C)C(=O)OCc2ccc(Cl)cc2)cc1 (stereo not drawn) | 486 | 2.8 | > 2000 | 0.5 | 1.0 | – | – | –
5 | CC(C)Cc1ccc(C(C)C(=O)OCc2ccccc2F)cc1 (stereo not drawn) | 202 | 2.9 | – | 1.6 | 1.7 | – | – | –
6 | CC(C)Cc1ccc(C(C)C(=O)OCc2cccc(F)c2)cc1 (stereo not drawn) | 634 | 0.9 | – | 0.8 | 1.7 | – | – | –
7 | CC(C)Cc1ccc(C(C)C(=O)OCc2ccc(F)cc2)cc1 (stereo not drawn) | – | – | – | 1.1 | 1.2 | – | – | –
8 | Cc1ccc(COC(=O)C(C)c2ccc(CC(C)C)cc2)cc1 (stereo not drawn) | 230 | 1.9 | – | 1.7 | 1.5 | – | – | –
9 | COc1ccc(COC(=O)C(C)c2ccc(CC(C)C)cc2)cc1 (stereo not drawn) | 220 | 2.3 | – | 0.8 | 1.4 | – | – | –
10 | CC(C)Cc1ccc(C(C)C(=O)OCc2c(Cl)cccc2Cl)cc1 (stereo not drawn) | 79.6 | 2.1 | > 2000 | 0.6 | 1.0 | – | – | –
11 | CC(C)Cc1ccc(C(C)C(=O)OCCN(C)C)cc1 (stereo not drawn) | 53.7 | 2.0 | 1000 to 2000 | 0.8 | 1.2 | – | – | –
12 | CCN(CC)CCOC(=O)C(C)c1ccc(CC(C)C)cc1 (stereo not drawn) | 318 | 3.0 | 500 to 1000 | 1.2 | 0.9 | – | – | –
13 | CC(C)Cc1ccc(C(C)C(=O)OCCCN(C)C)cc1 (stereo not drawn) | 29.9 | 2.2 | 500 to 1000 | 0.7 | 1.1 | – | – | –
14 | CC(C)Cc1ccc(C(C)C(=O)OCCN2CCOCC2)cc1 (stereo not drawn) | 154 | 1.6 | 1000 to 2000 | 0.7 | 0.9 | – | – | –
15 | CC(C)Cc1ccc(C(C)C(=O)OCCN2CCN(C)CC2)cc1 (stereo not drawn) | 31.6 | 2.5 | 1000 to 2000 | 1.0 | 1.1 | – | – | –
16 | CC(C)Cc1ccc(C(C)C(=O)OCc2ccccn2)cc1 (stereo not drawn) | 67.8 | 4.0 | 1000 to 2000 | 0.7 | 1.8 | – | – | –
17 | CC(C)Cc1ccc(C(C)C(=O)OCc2cccnc2)cc1 (stereo not drawn) | 31.2 | 1.7 | 1000 to 2000 | 1.0 | 1.4 | – | – | –
18 | CC(C)Cc1ccc(C(C)C(=O)OCc2ccncc2)cc1 (stereo not drawn) | 87.1 | 2.7 | > 2000 | 1.0 | 1.2 | – | – | –
19 | CC(C)Cc1ccc(C(C)C(=O)OCc2cccnc2Cl)cc1 (stereo not drawn) | 762 | 1.8 | > 2000 | 0.8 | 2.5 | – | – | –
20 | CC(C)Cc1ccc(C(C)C(=O)OCC2CCCO2)cc1 (stereo not drawn) | 91.6 | 3.1 | 1000 to 2000 | 0.6 | 0.9 | – | – | –
21 | COC(=O)C(C)c1ccc(CC(C)C)cc1 (stereo not drawn) [Compound 1] | 109 | 3.5 | > 2000 | 0.8 | 1.4 | – | – | –
22 | CCCOC(=O)C(C)c1ccc(CC(C)C)cc1 (stereo not drawn) [Compound 2, 2-(4-isobutylphenyl)propionic acid-n-propyl ester] | 192 | 3.2 | > 2000 | 0.7 | 1.1 | – | – | –
23 | CCCCCCOC(=O)C(C)c1ccc(CC(C)C)cc1 (stereo not drawn) [Compound 6] | 215 | 3.5 | > 2000 | – | 1.2 | – | – | –
24 | CC(C)Cc1ccc(C(C)C(=O)OCC(O)CO)cc1 (stereo not drawn) [Compound 11] | 143 | – | 1000 to 2000 | 1.1 | 0.9 | – | – | –
25 | CC(=O)OCOC(=O)C(C)c1ccc(CC(C)C)cc1 (stereo not drawn) [Compound 17] | – | – | – | 0.9 | 0.9 | – | – | –
26 | CC(C)Cc1ccc(C(C)C(=O)O)cc1 (stereo not drawn) [ibuprofen, 2-(p-isobutylphenyl)propionic acid, reference compound] | 45.8 | – | – | – | – | 23.8 | 33.5 | 37.4
